{"source": "patent US20240197646A1", "about": "“DRUG DELIVERY SYSTEM AND METHODS OF USING THE SAME” (Axogen Corporation, priority 2022, published 2024)", "origin": "cited, not measured here", "details": "stated reference level, no source or test given", "data": [{"smiles": "C=CC[C@@H]1/C=C(\\C)C[C@H](C)C[C@H](OC)[C@H]2O[C@@](O)(C(=O)C(=O)N3CCCC[C@H]3C(=O)O[C@H](/C(C)=C/[C@@H]3CC[C@@H](O)[C@H](OC)C3)[C@H](C)[C@@H](O)CC1=O)[C@H](C)C[C@@H]2OC", "note": "[FK506]", "values": [{"measurement": "toxic dose", "result": "about 5 mg/ml"}]}]}
